Consider twelve molecules from patent US7642280B2, “Inhibitors of acyl glucosaminyl inositol amidase and methods of use” (The Regents of the University of California, priority 2001, dated 2010).

pIC50: −log10 of the molar value. Like-named read-outs stand apart in the source and are kept apart here.

The target in assay [1] is mycothiol S-conjugate amidase (MCA) (Mycolicibacterium smegmatis, UniProt A0R2W9). Briefly: Fluorescence-detected HPLC assay of MCA cleavage of MSmB (50 μM MSmB as substrate), Examples 1 and 3. It counts as biochemical.
Sequence of mycothiol S-conjugate amidase (MCA) (A0R2W9 whole entry): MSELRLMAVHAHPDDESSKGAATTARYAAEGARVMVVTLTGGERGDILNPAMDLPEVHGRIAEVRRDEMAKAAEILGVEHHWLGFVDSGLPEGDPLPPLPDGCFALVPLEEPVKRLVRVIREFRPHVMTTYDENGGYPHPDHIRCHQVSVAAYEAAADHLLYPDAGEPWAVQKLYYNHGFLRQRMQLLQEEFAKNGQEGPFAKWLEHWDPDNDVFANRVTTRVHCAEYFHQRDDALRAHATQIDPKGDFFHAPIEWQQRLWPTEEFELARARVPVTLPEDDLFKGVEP
The target of assay [2] is M. tuberculosis MCA (Mycobacterium tuberculosis, UniProt P9WJN1). Briefly: biochemical.
Sequence of M. tuberculosis MCA (P9WJN1 whole entry): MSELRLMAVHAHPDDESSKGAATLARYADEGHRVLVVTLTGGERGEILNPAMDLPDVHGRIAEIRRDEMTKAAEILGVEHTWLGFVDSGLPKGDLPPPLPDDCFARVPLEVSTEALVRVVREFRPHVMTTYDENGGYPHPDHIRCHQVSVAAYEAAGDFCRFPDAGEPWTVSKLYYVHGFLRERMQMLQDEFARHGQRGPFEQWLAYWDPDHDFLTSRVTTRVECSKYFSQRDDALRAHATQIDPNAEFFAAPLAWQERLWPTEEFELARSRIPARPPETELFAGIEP
In assay [3] the target is Mycobacterium smegmatis mycothiol-S-conjugate amidase (MCA) (Mycolicibacterium smegmatis, UniProt A0R2W9). Briefly: Fluorescence-based HPLC IC50 assay, wild type M. smegmatis MCA with natural MSmB. It counts as biochemical.
Sequence of Mycobacterium smegmatis mycothiol-S-conjugate amidase (MCA) (A0R2W9 whole entry): as the sequence (A0R2W9 whole entry) above
Setting [4] is: recombinant M. tuberculosis MCA approx. 20 nM, 30 μM synthetic MSmB, 20 min, 31° C., read-out: IC50 M. tb.
[5] abbreviates: 50 μM MSmB as substrate, read-out: concentration that inhibited mycothiol S-conjugate amidase by 50%.
[6] abbreviates: wild type M. smegmatis MCA approx. 20 nM, 30 μM natural MSmB, 20 min, 31° C., read-out: IC50 M. smeg.

As for `COC1=C(Br)[C@@H](O)[C@]2(C=C1Br)CC(C(=O)NCCc1[nH]c(N)nc1-c1cc(O)c3ncc(O)c(O)c3c1O)=NO2` [Compound 1], the pIC50 is 5.70 in assay [1], 5.52 in assay [2] (setting [4]) and 5.70 in assay [3].

As to `COC1=C(Br)[C@@H](O)[C@]2(C=C1Br)CC(C(=O)NCCc1cnc(N)[nH]1)=NO2` [Compound 2, Pseudoceratine], the pIC50 in assay [1] (setting [5]), in assay [2] (setting [4]) and in assay [3] (setting [6]) was 4.00 throughout.

In the case of `COC1=C(Br)C[C@]2(OC=C1Br)ON=C(C(=O)NCCCOc1c(Br)cc(C(O)CN)cc1Br)[C@@H]2O` (stereo partly shown) [Compound 4, psammaplysin B], the pIC50 in assay [1] (setting [5]) was 5.52; in assay [2] (setting [4]), 4.52; in assay [3] (setting [6]) it was 4.70.

As for `CN1C(=O)[C@]23CC4=CC=C[C@H](O)[C@H]4N2C(=O)[C@@]1(CO)SS3` [Compound 12, Gliotoxin], the pIC50 in assay [2] and in assay [3] (setting [6]) was 4.52 each time.

Consider `CS[C@]1(CO)C(=O)N2[C@H]3C(=CC=C[C@@H]3O)C[C@@]2(SC)C(=O)N1C` [Compound 13, S,S-dimethyl gliotoxin], for which the pIC50 in assay [3] (setting [6]) is 3.55.

With `COc1cc(O)c2c(c1)C(=O)c1cc(C)cc(O)c1C2=O` [Compound 14, Physcion], the pIC50 in assay [3] (setting [6]) is 4.30.

In the case of `O=c1c(O)c[nH]c2c(O)ccc(O)c12` [uranidine, reference compound], the “inhibitory activity against MCA (in words)” value in assay [1] (50 μM MSmB as substrate, absence of cleavage product AcCys-bimane) is recorded as “ineffective”.

On to Oceanapiside [Compound 7], for which the pIC50 was 5.30 in assay [1] (50 μM MSmB as substrate, read-out: IC50 amidase inhibition (Example 3, FIG. 6)); 5.00 in assay [2] (setting [4]); 6.30 in assay [3] (setting [6]).

On to Suvanine [Compound 10], for which the pIC50 in assay [3] (setting [6]) is 4.22.

On to halisulfate 1 [Compound 11], for which, in assay [3] (setting [6]), the pIC50 was 4.40.

As to oceanapiside aglycon [Compound 8], the pIC50 in assay [2] (setting [4]) is 4.70.

In the case of psammaplysin A [Compound 3], the pIC50 in assay [2] (setting [4]) and in assay [3] (setting [6]) was 4.52 throughout.
